Experimental data: patent US20110105472A1, “Diaminopyrimidines as crop protection agents” (Bayer CropScience AG, priority 2008, published 2011)

Test: logP by LC-MS, method [b], acidic range pH 2.7
Type: physicochemical
Details: not given

Row | SMILES | log p
1 | COC(=O)Nc1cccc(Nc2ncc(Cl)c(NC3CCC3)n2)c1 [Compound 139] | 1.73

Same assay, conditions: pH 2.7

Row | SMILES | log p
2 | O=C(Nc1ccccc1)c1ccc(Nc2ncc(Br)c(NC3CCC3)n2)cc1 [Compound 72] | 2.09[b]
3 | O=C1NC(=O)C(c2ccc(Nc3ncc(Br)c(NC4CCC4)n3)cc2)N1 (centres unmarked) [Compound 187] | 1.24[b]
4 | CCSc1cccc(Nc2ncc(Cl)c(NC3CCC3)n2)c1 [Compound 188] | 3.15[b]
5 | CC(C)(C)C(=O)Cc1ccc(Nc2ncc(Br)c(NC3CCC3)n2)cc1 [Compound 104] | 2.63[b]
6 | COc1ccc(Nc2ncc(Cl)c(NC3CCC3)n2)cc1 [Compound 110] | 1.75[b]
7 | CC(=O)Cc1ccc(Nc2ncc(Cl)c(NC3CCC3)n2)cc1 [Compound 244] | 1.75[b]
8 | CCOC(=O)Nc1cccc(Nc2ncc(Br)c(NC3CCC3)n2)c1 [Compound 105] | 2.04[b]
9 | Cc1cc(O)ccc1Nc1ncc(Br)c(NC2CCC2)n1 [compound 198] | 1.47[b]
10 | CNC(=O)c1cccc(Nc2ncc(Br)c(NC3CCC3)n2)c1 [Compound 192] | 1.58[b]
11 | CC1(C(=O)Nc2cccc(Nc3ncc(Cl)c(NC4CCC4)n3)c2)CC1 [Compound 140] | 1.92[b]
12 | CCC(=O)Nc1cccc(Nc2ncc(Br)c(NC3CCC3)n2)c1 [Compound 97] | 1.71[b]
13 | CCc1cccc(Nc2ncc(Cl)c(NC3CCC3)n2)c1 [Compound 251] | 2.67[b]
14 | Clc1cnc(Nc2ccc(I)cc2)nc1NC1CCC1 [compound 230] | 3.49[b]
15 | Cc1cccc(Nc2ncc(Br)c(NC3CCC3)n2)c1 [Compound 224] | 2.55[b]
16 | CS(=O)(=O)c1ccc(Nc2ncc(Br)c(NC3CCC3)n2)cc1 [Compound 179] | 2.32[b]
17 | N#Cc1cccc(Nc2ncc(Br)c(NC3CCC3)n2)c1 [Compound 64] | 2.67[b]
18 | CC(=O)c1ccc(Nc2ncc(Br)c(NC3CCC3)n2)cc1 [compound 145] | 2.65[b]
19 | COc1cc(Nc2ncc(Br)c(NC3CCC3)n2)cc(OC)c1 [Compound 53] | 2.12[b]
20 | COC(=O)Nc1cccc(Nc2ncc(Br)c(NC3CCC3)n2)c1 [Compound 106] | 1.83[b]
21 | CC(C)(CF)C(=O)Nc1cccc(Nc2ncc(Br)c(NC3CCC3)n2)c1 [Compound 166] | 2.09[b]
22 | FC(F)Sc1ccc(Nc2ncc(Br)c(NC3CCC3)n2)cc1 [Compound 202] | 3.41[b]
23 | Fc1ccc(Nc2ncc(Br)c(NC3CCC3)n2)cc1 [Compound 49] | 2.33[b]

Row | SMILES | log p
24 | N#CCc1cc(Nc2ncc(Br)c(NC3CCC3)n2)ccc1F [Compound 219] | 2.2[b]
25 | COc1ccccc1Nc1ncc(Br)c(NC2CCC2)n1 [Compound 68] | 2.23[b]
26 | FC(F)(F)Oc1ccc(Nc2ncc(Br)c(NC3CCC3)n2)cc1 [compound 183] | 3.73[b]
27 | O=C1Cc2cc(Nc3ncc(Cl)c(NC4CCC4)n3)ccc2N1 [compound 7] | 1.33[b]
28 | O=C(c1ccc(Nc2ncc(Br)c(NC3CCC3)n2)cc1)N1CCOCC1 [Compound 191] | 1.75[b]
29 | CC(C)Sc1cccc(Nc2ncc(Cl)c(NC3CCC3)n2)c1 [Compound 146] | 3.62[b]
30 | Brc1cnc(Nc2ccccc2)nc1NC1CCC1 [Compound 229] | 2.18[b]
31 | FC(F)C(F)(F)Oc1cccc(Nc2ncc(Br)c(NC3CCC3)n2)c1 [compound 170] | 3.37[b]
32 | CCNC(=O)c1cccc(Nc2ncc(Br)c(NC3CCC3)n2)c1 [Compound 190] | 1.73[b]
33 | OCc1cccc(Nc2ncc(Br)c(NC3CCC3)n2)c1 [Compound 185] | 1.44[b]
34 | N#CCc1ccc(Nc2ncc(Cl)c(NC3CCC3)n2)cc1 [Compound 233] | 1.88[b]
35 | CN(C)C(=O)c1cccc(Nc2ncc(Cl)c(NC3CCC3)n2)c1 [Compound 247] | 1.57[b]
36 | CC(=O)CCc1cccc(Nc2ncc(Br)c(NC3CCC3)n2)c1 [Compound 253] | 2.04[b]
37 | O=C1NC(=O)c2cc(Nc3ncc(Br)c(NC4CCC4)n3)ccc21 [compound 22] | 2.25[b]
38 | O=S(=O)(c1ccc(Nc2ncc(Br)c(NC3CCC3)n2)cc1)C(F)(F)F [compound 193] | 4.32[b]
39 | COc1cc(Nc2ncc(Br)c(NC3CCC3)n2)ccc1F [Compound 31] | 2.41[b]
40 | O=S1(=O)CCCN1c1cccc(Nc2ncc(Br)c(NC3CCC3)n2)c1 [Compound 258] | 2.25[b]
41 | O=C1N(CCCl)CCN1c1cccc(Nc2ncc(Br)c(NC3CCC3)n2)c1 [Compound 206] | 2.19[b]
42 | CC(C)(C)C(=O)Nc1ccc(Nc2ncc(Cl)c(NC3CCC3)n2)cc1 [Compound 116] | 1.94[b]
43 | CC(=O)N(c1ccc(Nc2ncc(Br)c(NC3CCC3)n2)cc1)C1CCCCC1 [compound 163] | 2.7[b]
44 | O=S1(=O)CCCN1c1cccc(Nc2ncc(Cl)c(NC3CCC3)n2)c1 [Compound 257] | 1.74[b]
45 | Brc1cnc(Nc2ccc3c(c2)OCO3)nc1NC1CCC1 [Compound 19] | 1.87[b]

Row | SMILES | log p
46 | O=C1COCCN1c1cccc(Nc2ncc(Br)c(NC3CCC3)n2)c1 [Compound 210] | 1.53[b]
47 | COc1ccc(Nc2ncc(Br)c(NC3CCC3)n2)cc1 [Compound 208] | 1.8[b]
48 | CC(=O)c1ccc(Nc2ncc(Cl)c(NC3CCC3)n2)cc1 [compound 131] | 2.26[b]
49 | O=C1CCc2cc(Nc3ncc(Br)c(NC4CCC4)n3)ccc2N1 [Compound 4] | 1.49[b]
50 | O=C1CCc2cc(Nc3ncc(Br)c(NC4CCC4)n3)ccc21 [compound 9] | 2.59[b]
51 | CC(C)(C)C(=O)Nc1cccc(Nc2ncc(Cl)c(NC3CCC3)n2)c1 [Compound 125] | 2.04[b]
52 | CCc1nc2cc(Nc3ncc(Br)c(NC4CCC4)n3)ccc2o1 [Compound 21] | 2.06[b]
53 | CCC(=O)c1ccc(Nc2ncc(Br)c(NC3CCC3)n2)cc1 [Compound 172] | 3.19[b]
54 | CN1C(=O)COc2ccc(Nc3ncc(Br)c(NC4CCC4)n3)cc21 [Compound 13] | 1.83[b]
55 | COCCNCc1ccc(Nc2ncc(Br)c(NC3CCC3)n2)cc1 [Compound 176] | 1.13[b]
56 | CCOC(=O)Nc1ccc(Nc2ncc(Br)c(NC3CCC3)n2)cc1O [compound 151] | 1.8[b]
57 | Brc1cnc(Nc2ccc3[nH]ccc3c2)nc1NC1CCC1 [Compound 1] | 1.59[b]
58 | Cc1cccc(Nc2ncc(Cl)c(NC3CCC3)n2)c1 [Compound 231] | 2.33[b]
59 | CN(C)C(=O)c1ccc(Nc2ncc(Cl)c(NC3CCC3)n2)cc1 [Compound 240] | 1.6[b]
60 | O=C(c1ccc(Nc2ncc(Br)c(NC3CCC3)n2)cc1)C(F)(F)F [Compound 197] | 4.41[b]
61 | CC(=O)c1cccc(Nc2ncc(Br)c(NC3CCC3)n2)c1 [Compound 32] | 2.28[b]
62 | O=C(NCC(F)(F)F)c1cccc(Nc2ncc(Br)c(NC3CCC3)n2)c1 [Compound 181] | 2.21[b]
63 | O=c1[nH]c2cc(Nc3ncc(Br)c(NC4CCC4)n3)ccc2o1 [Compound 16] | 1.61[b]
64 | C=CCNC(=O)c1ccc(Nc2ncc(Cl)c(NC3CCC3)n2)cc1 [Compound 241] | 1.91[b]
65 | CN(C)S(=O)(=O)c1ccc(Nc2ncc(Br)c(NC3CCC3)n2)cc1 [Compound 91] | 2.73[b]
